± gives the standard deviation of the averaged measurements.
Tests used:
VISMODEGIB = compound: CS(=O)(=O)c1ccc(C(=O)Nc2ccc(Cl)c(-c3ccccn3)c2)c(Cl)c1 [VISMODEGIB]; assay: surviving fraction relative to DMSO-only wells; higher = less growth inhibition; conditions: exposure time: 5 days
Procedure, shortened: (§1)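 Tumour cell lines were grown to log phase and seeded at 250–500 cells per well in 384-well plates. They were exposed continuously to inhibitors at 0.5, 1, 5, 10, 50, 100, 500 and 1000 nM for five days, beginning 24 hours after seeding. Surviving fraction is CellTiter-Glo luminescence normalised to the median of DMSO-only wells.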

SALINOMYCIN = compound: CC[C@@H](C(=O)[C@@H](C)[C@@H](O)[C@H](C)[C@@H]1O[C@@H]([C@@H](CC)C(=O)O)CC[C@@H]1C)[C@H]1O[C@]2(C=C[C@@H](O)[C@]3(CC[C@@](C)([C@H]4CC[C@](O)(CC)[C@H](C)O4)O3)O2)[C@H](C)C[C@@H]1C [SALINOMYCIN]; assay: as above; conditions: exposure time: 5 days
Procedure, shortened: as §1

Test System | surviving fraction (VISMODEGIB; 0.5 nM) | surviving fraction (VISMODEGIB; 1 nM) | surviving fraction (VISMODEGIB; 5 nM) | surviving fraction (VISMODEGIB; 10 nM) | surviving fraction (VISMODEGIB; 50 nM) | surviving fraction (VISMODEGIB; 100 nM) | surviving fraction (VISMODEGIB; 500 nM) | surviving fraction (VISMODEGIB; 1000 nM) | surviving fraction (SALINOMYCIN; 0.5 nM) | surviving fraction (SALINOMYCIN; 1 nM) | surviving fraction (SALINOMYCIN; 5 nM) | surviving fraction (SALINOMYCIN; 10 nM) | surviving fraction (SALINOMYCIN; 50 nM) | surviving fraction (SALINOMYCIN; 100 nM) | surviving fraction (SALINOMYCIN; 500 nM) | surviving fraction (SALINOMYCIN; 1000 nM)
SCC90 HEADNECK | 0.824 ± 0.014 | 0.945 ± 0.051 | 0.908 ± 0.092 | 1.01 ± 0.023 | 0.848 ± 0.026 | 0.84 ± 0.053 | 0.841 ± 0.015 | 0.881 ± 0.029 | 0.897 ± 0.073 | 0.919 ± 0.035 | 1.16 ± 0.059 | 0.986 ± 0.14 | 1.17 ± 0.2 | 0.963 ± 0.057 | 0.301 ± 0.041 | 0.255 ± 0.067
93VU HEADNECK | 0.962 ± 0.03 | 1.08 ± 0.057 | 1.06 ± 0.03 | 1.02 ± 0.14 | 0.868 ± 0.025 | 0.964 ± 0.093 | 0.849 ± 0.061 | 0.915 ± 0.04 | 0.887 ± 0.048 | 0.885 ± 0.11 | 1.01 ± 0.04 | 1.05 ± 0.023 | 0.976 ± 0.08 | 0.91 ± 0.053 | 0.304 ± 0.041 | 0.177 ± 0.005
MDAMB436 BREAST | 0.851 ± 0.041 | 0.865 ± 0.0089 | 0.873 ± 0.027 | 0.852 ± 0.071 | 0.891 ± 0.04 | 0.915 ± 0.056 | 0.751 ± 0.013 | 0.78 ± 0.045 | 0.858 ± 0.039 | 0.902 ± 0.047 | 0.668 ± 0.033 | 0.567 ± 0.042 | 0.464 ± 0.059 | 0.375 ± 0.049 | 0.105 ± 0.0028 | 0.0963 ± 0.0055
LNCAP PROSTATE | 1.01 ± 0.17 | 0.95 ± 0.15 | 1.01 ± 0.13 | 1.02 ± 0.21 | 1.14 ± 0.11 | 1.08 ± 0.19 | 1.13 ± 0.13 | 1.08 ± 0.12 | 0.833 ± 0.096 | 0.884 ± 0.07 | 0.818 ± 0.18 | 0.815 ± 0.11 | 0.643 ± 0.01 | 0.215 ± 0.013 | 0.0563 ± 0.005 | 0.0493 ± 0.0031
MHM BONE | 0.978 ± 0.04 | 1.018 ± 0.0098 | 1.04 ± 0.035 | 1.02 ± 0.027 | 1.04 ± 0.015 | 1.05 ± 0.017 | 1.04 ± 0.008 | 1.085 ± 0.0059 | 0.988 ± 0.042 | 0.981 ± 0.046 | 1.01 ± 0.019 | 0.9657 ± 0.0042 | 1.037 ± 0.009 | 1.081 ± 0.0025 | 0.921 ± 0.044 | 0.694 ± 0.054
CME SYNOVIAL | 1.24 ± 0.088 | 1.2 ± 0.12 | 1.2 ± 0.27 | 1.3 ± 0.16 | 1.07 ± 0.098 | 1.12 ± 0.13 | 1.03 ± 0.17 | 0.9627 ± 0.0064 | 1.12 ± 0.14 | 0.826 ± 0.031 | 1.06 ± 0.15 | 0.177 ± 0.069 | 1.14 ± 0.07 | 0.947 ± 0.094 | 0.351 ± 0.018 | 0.141 ± 0.0067
OSHN BONE | 1.01 ± 0.022 | 1.03 ± 0.019 | 1.05 ± 0.013 | 1.059 ± 0.0084 | 0.955 ± 0.021 | 0.991 ± 0.024 | 0.963 ± 0.031 | 0.989 ± 0.025 | 1.02 ± 0.019 | 1.01 ± 0.011 | 1.01 ± 0.016 | 1.02 ± 0.02 | 1.01 ± 0.018 | 0.966 ± 0.013 | 0.247 ± 0.005 | 0.115 ± 0.0046
MCF7 BREAST | 0.898 ± 0.029 | 0.916 ± 0.059 | 0.874 ± 0.032 | 0.892 ± 0.097 | 0.883 ± 0.032 | 0.966 ± 0.043 | 0.913 ± 0.041 | 0.904 ± 0.037 | 0.853 ± 0.048 | 0.8602 ± 0.005 | 0.821 ± 0.025 | 0.815 ± 0.034 | 0.941 ± 0.02 | 0.908 ± 0.055 | 0.677 ± 0.014 | 0.348 ± 0.028
CAL51 BREAST | 0.895 ± 0.042 | 0.923 ± 0.013 | 0.9295 ± 0.0062 | 0.931 ± 0.043 | 0.931 ± 0.056 | 0.975 ± 0.071 | 0.9558 ± 0.009 | 0.963 ± 0.01 | 0.937 ± 0.041 | 0.86 ± 0.12 | 0.984 ± 0.018 | 0.969 ± 0.021 | 1 ± 0.017 | 0.972 ± 0.034 | 0.615 ± 0.022 | 0.359 ± 0.018
SUM149.B1*.S BREAST | 0.992 ± 0.064 | 0.971 ± 0.056 | 0.981 ± 0.033 | 0.987 ± 0.039 | 0.922 ± 0.051 | 0.988 ± 0.0033 | 0.9072 ± 0.0081 | 0.913 ± 0.054 | 1.02 ± 0.052 | 0.884 ± 0.057 | 0.955 ± 0.016 | 0.609 ± 0.014 | 0.982 ± 0.051 | 0.768 ± 0.032 | 0.3677 ± 0.0023 | 0.294 ± 0.016
MDAMB134 BREAST | 0.848 ± 0.089 | 0.886 ± 0.14 | 0.878 ± 0.057 | 0.915 ± 0.062 | 0.687 ± 0.12 | 0.717 ± 0.093 | 0.625 ± 0.024 | 0.662 ± 0.11 | 1.05 ± 0.26 | 1.01 ± 0.22 | 0.995 ± 0.0042 | 1.08 ± 0.015 | 1.02 ± 0.069 | 1.05 ± 0.021 | 1.32 ± 0.041 | 1.04 ± 0.037
YAMATO SYNOVIAL | 1.24 ± 0.083 | 1.26 ± 0.099 | 1.34 ± 0.087 | 1.37 ± 0.067 | 0.917 ± 0.031 | 0.967 ± 0.15 | 0.805 ± 0.066 | 0.82 ± 0.12 | 1.11 ± 0.044 | 0.733 ± 0.042 | 0.984 ± 0.046 | 0.216 ± 0.0092 | 1.05 ± 0.08 | 0.655 ± 0.029 | 0.359 ± 0.013 | 0.133 ± 0.013
C33A CERVIX | 0.872 ± 0.066 | 1.007 ± 0.0076 | 1.12 ± 0.087 | 0.985 ± 0.061 | 0.879 ± 0.066 | 1 ± 0.069 | 0.851 ± 0.055 | 0.953 ± 0.066 | 0.812 ± 0.13 | 0.769 ± 0.16 | 1 ± 0.12 | 1.05 ± 0.21 | 1.08 ± 0.035 | 1.08 ± 0.13 | 0.328 ± 0.024 | 0.25 ± 0.0067
MDAMB453 BREAST | 0.926 ± 0.025 | 0.966 ± 0.03 | 0.951 ± 0.021 | 1.03 ± 0.043 | 0.89 ± 0.047 | 0.954 ± 0.014 | 0.949 ± 0.027 | 0.9893 ± 0.0072 | 0.969 ± 0.025 | 0.9587 ± 0.0015 | 0.978 ± 0.027 | 0.9897 ± 0.009 | 1.02 ± 0.058 | 0.993 ± 0.045 | 0.56 ± 0.032 | 0.426 ± 0.06
VCAP PROSTATE | 1.04 ± 0.046 | 1 ± 0.11 | 1.1 ± 0.18 | 1.13 ± 0.22 | 0.905 ± 0.033 | 1.08 ± 0.12 | 0.914 ± 0.066 | 0.981 ± 0.1 | 1.07 ± 0.18 | 1.04 ± 0.12 | 1.09 ± 0.074 | 1.14 ± 0.053 | 1.08 ± 0.13 | 1.04 ± 0.023 | 0.245 ± 0.044 | 0.144 ± 0.0072
HOS BONE | 1 ± 0.013 | 1.01 ± 0.015 | 1.012 ± 0.0066 | 1.03 ± 0.026 | 0.991 ± 0.026 | 1.03 ± 0.05 | 1.01 ± 0.029 | 1.01 ± 0.079 | 0.99 ± 0.0076 | 0.969 ± 0.0052 | 0.997 ± 0.023 | 0.966 ± 0.0082 | 1.03 ± 0.012 | 0.858 ± 0.032 | 0.0367 ± 0.0031 | 0.0627 ± 0.019
VP229 BREAST | 1.27 ± 0.025 | 1.1 ± 0.065 | 1.15 ± 0.13 | 1.14 ± 0.082 | 0.972 ± 0.14 | 1.01 ± 0.017 | 1.15 ± 0.16 | 1.11 ± 0.014 | 0.949 ± 0.074 | 0.907 ± 0.022 | 1.04 ± 0.15 | 0.891 ± 0.12 | 0.831 ± 0.14 | 0.52 ± 0.021 | 0.139 ± 0.017 | 0.133 ± 0.015
HCT15 LARGE INTESTINE | 0.966 ± 0.01 | 1.04 ± 0.052 | 0.998 ± 0.033 | 1.02 ± 0.072 | 0.931 ± 0.034 | 1.01 ± 0.048 | 0.9417 ± 0.0025 | 1.03 ± 0.033 | 0.933 ± 0.022 | 0.843 ± 0.059 | 0.894 ± 0.028 | 0.589 ± 0.016 | 1.03 ± 0.041 | 0.964 ± 0.015 | 0.893 ± 0.032 | 0.442 ± 0.029
HOSMNG BONE | 0.972 ± 0.12 | 0.993 ± 0.15 | 0.942 ± 0.095 | 0.906 ± 0.067 | 0.942 ± 0.15 | 0.991 ± 0.093 | 1.02 ± 0.23 | 1.05 ± 0.16 | 0.987 ± 0.1 | 0.945 ± 0.13 | 1.03 ± 0.086 | 0.985 ± 0.15 | 1.05 ± 0.13 | 0.993 ± 0.18 | 0.909 ± 0.09 | 0.511 ± 0.12
HUO3N1 BONE | 1.04 ± 0.04 | 0.976 ± 0.038 | 1.06 ± 0.061 | 1.03 ± 0.062 | 0.977 ± 0.025 | 0.962 ± 0.052 | 0.994 ± 0.03 | 0.901 ± 0.059 | 1.01 ± 0.052 | 0.984 ± 0.073 | 1.01 ± 0.04 | 1.02 ± 0.071 | 0.844 ± 0.012 | 0.51 ± 0.023 | 0.167 ± 0.0067 | 0.151 ± 0.0097

From the supplement of paper PMC6045584
